What was measured:
[1] = molecular target: T1, GST tagged LXRbeta LBD (ligand binding domain) (Homo sapiens, UniProt P55055); assay: LanthaScreen TR-FRET Liver X Receptor Coactivator Assay, LXR beta-LBD (co-activator recruitment; IP and % Emax relative to T0901317); assay type: biochemical; details: for EC50: Inflection Point of co-activator recruitment, LXR beta-LBD, TR-FRET; for Emax: efficacy at max dose in relation to reference T0901317, LXR beta-LBD, read-out: LXR beta actiivty at max dose (%)
T1 construct: purchased Invitrogen pv4658.pps
T1 sequence (P55055 222-460 limits assumed): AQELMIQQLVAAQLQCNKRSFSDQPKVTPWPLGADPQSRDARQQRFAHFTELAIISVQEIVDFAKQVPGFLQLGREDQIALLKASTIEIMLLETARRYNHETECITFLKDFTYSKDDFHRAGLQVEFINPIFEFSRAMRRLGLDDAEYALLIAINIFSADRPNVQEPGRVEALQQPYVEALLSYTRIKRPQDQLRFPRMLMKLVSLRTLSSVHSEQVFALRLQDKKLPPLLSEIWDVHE
Method: (§1) Potency (Inflection Point, IP) and efficacy (Emax) are evaluated via compound-induced co-activator recruitment to glutathione-S-transferase (GST) tagged LXRbeta and LXRalpha LBD (ligand binding domain) proteins in relation to reference dual agonist compound T0901317 (N-(2,2,2-Trifluoroethyl)-N-[4-[2,2,2-trifluoro-1-hydroxy-1-(trifluoromethyl)ethyl]phenyl]benzenesulfonamide) using the LanthaScreen™ TR-FRET Liver X Receptor Coactivator Assays according to manufacturer's instructions (Invitrogen catalog number pv4658.pps and pv4655). While running the LanthaScreen™ TR-FRET Liver X Receptor Coactivator Assay, LXR alpha-LBD or LXR beta-LBD was added to ligand test compounds followed by addition of a mixture of a fluorescein-labelled coactivator peptide and terbium-conjugated anti-GST antibody. After an incubation period at room temperature, TR-FRET (time-resolved fluorescence resonance energy transfer) was measured using a filter-based instrument capable of TR-FRET, e.g. PerkinElmer Envision.

[2] = molecular target: T2, GST tagged LXRalpha LBD (ligand binding domain) (Homo sapiens, UniProt Q13133); assay: LanthaScreen TR-FRET Liver X Receptor Coactivator Assay, LXR alpha-LBD (co-activator recruitment; IP and % Emax relative to T0901317); assay type: biochemical; details: for EC50 / LXR alpha IP (nM): Inflection Point of co-activator recruitment, LXR alpha-LBD, TR-FRET; for Emax: efficacy at max dose in relation to reference T0901317, LXR alpha-LBD, read-out: LXR alpha actiivty at max dose (%)
T2 construct: purchased Invitrogen pv4655
T2 sequence (Q13133 209-447 limits assumed): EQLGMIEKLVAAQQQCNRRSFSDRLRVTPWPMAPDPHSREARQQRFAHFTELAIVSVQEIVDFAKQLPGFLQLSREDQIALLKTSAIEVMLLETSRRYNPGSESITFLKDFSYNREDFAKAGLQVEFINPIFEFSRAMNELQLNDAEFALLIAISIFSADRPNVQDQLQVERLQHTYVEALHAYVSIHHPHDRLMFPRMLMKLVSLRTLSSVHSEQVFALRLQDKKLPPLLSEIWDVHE
Method: as §1

| SMILES | EC50 [1] [nM] | Emax [1] [%] | EC50 [2] [nM] | Emax [2] [%] | LXR alpha IP (nM) [2] | activity (stated in words in the synthesis text) ([1]; cis/trans isomers of Example 11-1 separated by Prep-HPLC (RT=1.95 min, 1.98 min), assay not given) |
| --- | --- | --- | --- | --- | --- | --- |
| COc1cccc([C@@](O)(C(=O)N[C@H](C)CCC2CCN(c3ccc(C(=O)N(C)C)c(Cl)n3)CC2)C(F)(F)F)c1 [Example 6-2, 2-chloro-N,N-dimethyl-6-(4-((R)-3-((R)-3,3,3-trifluoro-2-hydroxy-2-(3-methoxyphenyl)propanamido)butyl)piperidin-1-yl)nicotinamide] | 98 | 116 | 2440 | 29 | – | – |
| CN(C)C(=O)c1ccc(N2CCC(CCCN(C)C(=O)C3(c4ccccc4)CCCC3)CC2)nc1Cl [Example 1-42, 2-chloro-N,N-dimethyl-6-(4-(3-(N-methyl-1-phenylcyclopentanecarboxamido)pro-pyl)piperidin-1-yl)nicotinamide] | 92 | 64 | – | 11 | No IP | – |
| CNC(=O)c1ccc(N2CCC([C@H]3C[C@H]3CNC(=O)[C@](O)(c3cccc(OC)c3)C(F)(F)F)CC2)nc1Cl [Example 15-11, 2-chloro-N-methyl-6-(4-((1R,2R)-2-(((R)-3,3,3-trifluoro-2-hydroxy-2-(3-methoxyphenyl)propanamido)methyl)cyclopropyl)piperidin-1-yl)nicotinamide] | 4440 | 36 | – | 1 | No IP | – |
| CN(C)C(=O)c1ccc(N2CCC(CCCNC(=O)[C@@](O)(c3cccc(O)c3)C(F)(F)F)CC2)nc1Cl [Example 5-21, (S)-2-chloro-N,N-dimethyl-6-(4-(3-(3,3,3-trifluoro-2-hydroxy-2-(3-hydroxyphenyl)propanamido)propyl)piperidin-1-yl)nicotinamide] | 314 | 91 | 8720 | 36 | – | – |
| COc1cccc([C@@](O)(C(=O)N(C)[C@H]2C[C@@H](C3CCN(c4ccc(C(=O)N(C)C)c(Cl)n4)CC3)C2)C(F)(F)F)c1 [Example 17-4, cis-2-chloro-N,N-dimethyl-6-(4-(-3-((R)-3,3,3-trifluoro-2-hydroxy-2-(3-methoxyphenyl)-N-methylpropanamido)cyclobutyl)piperidin-1-yl)nicotinamide] | 53 | 39 | – | 13 | No IP | – |
| CN(C)C(=O)c1ccc(N2CCC(CCCN(C)C(=O)[C@](O)(c3ccccc3)C(F)(F)F)CC2)nc1C#N [Example 2-19, (R)-2-cyano-N,N-dimethyl-6-(4-(3-(3,3,3-trifluoro-2-hydroxy-N-methyl-2-phenylpropanamido)propyl)piperidin-1-yl)nicotinamide] | 128 | 76 | 2610 | 23 | – | – |
| CC(C)[C@@]1(C(=O)N(C)CCCC2CCN(c3ccc(C(=O)N(C)C)c(Cl)n3)CC2)CCCO1 [Example 1-18, (R)-2-chloro-6-(4-(3-(2-isopropyl-N-methyl-tetrahydrofuran-2-ycarboxamido)propyl)piperidin-1-yl)-N,N-dimethylnicotinamide] | 564 | 41 | – | 13 | No IP | – |
| CC(C)NC(=O)c1ccc(N2CCC3(CC2)C[C@@H]3CCN(C)C(=O)[C@](O)(c2ccccc2)C(F)(F)F)cc1Cl [Example 7-12, 2-chloro-N-isopropyl-4-((R)-1-(2-((R)-3,3,3-trifluoro-2-hydroxy-N-methyl-2-phenylpropanamido)ethyl)-6-azaspiro[2.5]octan-6-yl)benzamide] | 79 | 64 | 765 | 47 | – | – |
| CN(C)C(=O)c1ccc(N2CCC([C@H]3C[C@H]3CN(C)C(=O)[C@](O)(c3cccc(C4CC4)c3)C(F)(F)F)CC2)nc1Cl [Example 15-5, 2-chloro-6-(4-((1R,2R)-2-(((R)-2-(3-cyclopropylphenyl)-3,3,3-trifluoro-2-hydroxy-N-methylpropanamido)methyl)cyclopropyl)piperidin-1-yl)-N,N-dimethylnicotinamide] | 16 | 75 | – | 18 | No IP | – |
| COc1cccc([C@@](O)(C(=O)NCCCC2CCN(c3ccc(C(=O)N(C)C)c(Cl)n3)CC2)C(F)(F)F)c1.O=C(O)C(F)(F)F [Example 5-20, (R)-2-chloro-N,N-dimethyl-6-(4-(3-(3,3,3-trifluoro-2-hydroxy-2-(3-methoxyphenyl)propanamido)propyl)piperidin-1-yl)nicotinamide] | 230 | 69 | – | 17 | No IP | – |
| CCc1cccc([C@@](O)(C(=O)NCCCC2CCN(c3ccc(C(=O)N(C)C)c(Cl)n3)CC2)C(F)(F)F)c1 [Example 5-17, (R)-2-chloro-6-(4-(3-(2-(3-ethylphenyl)-3,3,3-trifluoro-2-hydroxypropanamido)propyl)piperidin-1-yl)-N,N-dimethylnicotinamide] | 401 | 43 | – | 0 | No IP | – |
| CN(C)C(=O)c1ccc(N2CCC([C@H]3C[C@H]3CN(C)C(=O)[C@](O)(c3ccccc3)C(F)(F)F)CC2)nc1Cl [Example 15-2, 2-chloro-N,N-dimethyl-6-(4-((1R,2R)-2-(((R)-3,3,3-trifluroo-2-hydroxy-N-methyl-2-phenylpropanamido)methyl)cyclopropyl)piperidin-1-yl)nicotinamide] | 10 | 64 | 289 | 25 | – | – |
| CN(C)C(=O)c1ccc(N2CCC(CCCN(C)C(=O)[C@](O)(c3cccc(OC(F)F)c3)C(F)(F)F)CC2)nc1Cl [Example 1-51, (R)-2-chloro-6-(4-(3-(2-(3-(difluoromethoxy)phenyl)-3,3,3-trifluoro-2-hydroxy-N-methyl-propanamido)propyl)piperidin-1-yl)-N,N-dimethylnicotinamide] | 546 | 55 | 5530 | 23 | – | – |
| COc1cccc([C@@](O)(C(=O)N(C)CCCC2CCN(c3ccc(C(=O)N4CC[C@@H](CO)C4)c(Cl)n3)CC2)C(F)(F)F)c1 [Example 2-7, (R)-N-(3-(1-(6-chloro-5-((R)-3-(hydroxymethyl)pyrrolidine-1-carbonyl)pyridin-2-yl)piperidin-4-yl)propyl)-3,3,3-trifluoro-2-hydroxy-2-(3-methoxyphenyl)-N-methylpropanamide] | 420 | 43 | – | 4 | No IP | – |
| CC(C)C(O)(C(=O)NCCCC1CCN(c2ccc(C(=O)N(C)C)c(Cl)c2)CC1)C(F)(F)F (stereo not shown) [Example 5-2, 2-chloro-4-(4-(3-(2-hydroxy-3-methyl-2-(trifluoromethyl)butanamido)propyl)piperidin-1-yl)-N,N-dimethyl-benzamide] | 686 | 80 | – | 11 | No IP | – |
| CN(C)C(=O)c1ccc(N2CCC([C@H]3C[C@@H](N(C)C(=O)[C@](O)(c4cccc(C5CC5)c4)C(F)(F)F)C3)CC2)nc1Cl [Example 17-2, cis-2-chloro-6-(4-(-3-((R)-2-(3-cyclopropylphenyl)-3,3,3-trifluoro-2-hydroxy-N-methylpropanamido)cyclobutyl)piperidin-1-yl)-N,N-dimethylnicotinamide] | 33 | 43 | – | 10 | No IP | – |
| COc1cccc([C@@](O)(C(=O)N(C)CC2CC3(CCN(c4ccc(C(=O)N(C)C)c(Cl)n4)CC3)C2)C(F)(F)F)c1 [Example 14-1, 2-chloro-N,N-dimethyl-6-(2-(((R)-3,3,3-trifluoro-2-hydroxy-2-(3-methoxyphenyl)-N-methylpropanamido)methyl)-7-azaspiro[3.5]nonan-7-yl)nicotinamide] | 35 | 42 | – | 5 | No IP | – |
| CC(C)C(O)(C(=O)N(C)CCCC1CCN(c2ccc(C(=O)N(C)C)c(Cl)c2)CC1)C(F)(F)F (stereo not shown) [Example 4-8, 2-chloro-4-(4-(3-(2-hydroxy-N,3-dimethyl-2-(trifluoromethyl)butanamido)propyl)piperidin-1-yl)-N,N-dimethyl-benzamide] | 471 | 73 | 3350 | 23 | – | – |
| COc1cccc([C@@](O)(C(=O)N(C)C2CC(CC3CCN(c4ccc(C(=O)N(C)C)c(C)n4)CC3)C2)C(F)(F)F)c1 (single isomer, unassigned) [first eluting peak] | – | – | – | – | – | not active |
